These results are taken from patent publication US20260085073A1, “PYRAZOLYLCARBOXAMIDE COMPOUNDS AND THEIR USE IN THERAPY” (Hotspot Therapeutics, Inc., priority 2022, published 2026).

This assay has as its target T1, MALT1 (Homo sapiens, UniProt Q9UDY8).
T1 construct: Avi-tagged FL MALT-1 (Pharmaron, stored at −70° C.); Avi-tag
T1 sequence (Q9UDY8 1-824): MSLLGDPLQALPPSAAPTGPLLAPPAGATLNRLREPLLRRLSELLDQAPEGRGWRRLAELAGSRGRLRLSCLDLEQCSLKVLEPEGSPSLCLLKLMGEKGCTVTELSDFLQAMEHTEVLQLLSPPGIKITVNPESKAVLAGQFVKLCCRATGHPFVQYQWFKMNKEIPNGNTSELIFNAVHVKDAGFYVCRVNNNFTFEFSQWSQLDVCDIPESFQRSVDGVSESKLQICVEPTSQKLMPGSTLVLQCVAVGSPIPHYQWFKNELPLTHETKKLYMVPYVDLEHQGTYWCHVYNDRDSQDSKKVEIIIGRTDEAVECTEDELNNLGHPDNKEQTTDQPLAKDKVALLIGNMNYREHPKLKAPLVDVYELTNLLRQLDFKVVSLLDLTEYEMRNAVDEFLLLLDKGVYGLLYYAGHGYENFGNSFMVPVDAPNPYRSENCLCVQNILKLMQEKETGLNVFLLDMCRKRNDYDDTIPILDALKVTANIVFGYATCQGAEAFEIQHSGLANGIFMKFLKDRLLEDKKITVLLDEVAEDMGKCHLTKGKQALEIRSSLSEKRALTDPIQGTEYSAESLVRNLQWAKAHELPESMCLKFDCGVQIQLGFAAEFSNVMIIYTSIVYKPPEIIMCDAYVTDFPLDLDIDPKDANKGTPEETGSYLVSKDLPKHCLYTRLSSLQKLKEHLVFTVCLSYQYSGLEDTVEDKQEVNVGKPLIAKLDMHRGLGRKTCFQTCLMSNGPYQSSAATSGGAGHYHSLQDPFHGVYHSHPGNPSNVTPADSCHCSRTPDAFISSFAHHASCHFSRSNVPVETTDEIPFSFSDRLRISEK
Briefly: MALT1 inhibition assay (MALT-1 Fluorogenic Peptide Cleavage Assay, Ac-LRSR-AMC substrate). The assay is classed as biochemical. Conditions: Avi-tagged FL MALT-1, 30 min pre-incubation, 90 min reaction at room temperature, fluorescence intensity. Here is the method: Example 71—MALT1 Inhibition Assay
Compounds were tested for ability to bind to MALT1.
Inhibition of MALT1 activity by the presence of small molecules was evaluated using MALT-1 Fluorogenic Peptide Cleavage Assay. The assay utilizes a quenched AMC-labelled peptide that contains the MALT-1 recognition sequence and cleavage site (LRSR). MALT-1 mediated cleavage of the peptide relieves the quenching and leads to an increase in fluorescence at excitation (342 nm) and emission (441 nm).
The following reagents were obtained commercially and used to prepare standard reagent formulations as further described below: N-2-hydroxyethylpiperazine-N-2-ethane sulfonic acid (HEPES) (1 M, pH 7.5, stored at 4° C.), sodium citrate (stored at RT), tris(2-carboxyethyl) phosphine hydrochloride (T-CEP) (500 mM, stored at −20° C.), ethylenediaminetetraacetic acid (EDTA) (500 mM, stored at RT), dimethylsulfoxide (DMSO, stored at RT), 3-[(3-cholamidopropyl)dimethylammonio]-1-propane sulphate (CHAPS) (stored at RT), dimethylsulfoxide (DMSO), DMSO (Fisher Scientific, stored at RT), Avi-tagged FL MALT-1 (Pharmaron, stored at −70° C.), Ac-LRSR-AMC Peptide (SM Biochemicals, stored at −20° C.), and ultrapure water (MILLI-QR).
The standard reagent formulations used in this assay were prepared and stored as follows. A 1.1 M solution of sodium citrate (161.3 g, 500 mL) was prepared and stored at room temperature. A 10% (w/v) CHAPS solution (2.0 g, 20 mL) was prepared and stored at 4° C. A 500 mM HEPES solution having pH of 6.89 was prepared from 200 mL of a 1 M HEPES solution having a pH of 7.5 using concentrated hydrochloric acid and brought to a final volume of 400 mL with MILLI-QR H2O. The substrate, 10 mM Ac-LRSR-AMC Peptide, was prepared (10 mg, 1.370 mL DMSO) and stored at −20° C.
Compounds were plated to provide a 2% DMSO final concentration using a ProxiPlate-384 Plus F Black 384-shallow well microplate. The assay-ready plates were equilibrated to room temperature. A reaction buffer (30 mL total volume) was prepared by combining HEPES (pH 6.89, 25 mM, 1.5 mL), sodium citrate (660 mM, 18.0 mL), T-CEP (1 mM, 0.06 mL), EDTA ([…], 0.06 mL), CHAPS (0.05%, 0.15 mL), DMSO (2%, 0.6 mL), and MILLI-QR H2O (10.23 mL; 9.63 mL when backfilled to 2% DMSO) followed by thorough mixing. DMSO was added only when compound plates had not been DMSO-backfilled to 2%.
MALT-1 was thawed and kept on ice. Peptide substrate was thawed on the bench under ambient conditions. A MALT-1 enzyme working stock was prepared from Avi-tagged FL MALT-1 (40 nM in a prepared reagent volume of 16.5 μL) and the reaction buffer (13.0 mL). MALT1 working stock (5 μL) was added to each well of the microplate. MALT-1 was pre-incubated with compounds for 30 minutes at room temperature.
Two substrate working stocks (Km and 10×Km) were prepared. The 1×Km substrate was prepared from Ac-LRSR-AMC Peptide (50 μM in a prepared reagent volume of 35.0 μL) and the reaction buffer (6.965 mL). The 10×Km substrate was prepared from Ac-LRSR-AMC Peptide (280 μM in a prepared reagent volume of 196.0 μL) and the reaction buffer (6.804 mL). The reaction was initiated by the addition of substrate working stock (5 μL, 50 μM) to Km plates and the addition of substrate working stock (5 μL 280 μM) to 10×Km plates. The plates were covered and incubated on the bench at room temperature for 90 minutes.
Fluorescence intensity was determined using a CLARIOstar microplate reader (BMG LABTECH) using the optimised AMC mode. Before taking readings, a 70% gain was applied on the neutral control well. Compound data were normalised to % Inhibition and used to plot sigmoidal concentration response curves to yield various parameters including IC50.
In the case of `Cn1nc2c(c1C(=O)Nc1cnc(-n3nccn3)c(Cl)c1)CCc1ccccc1-2` [Compound I-259], the half-inhibitory concentration (IC50) – broadly, the concentration at which inhibition is half-maximal – is > 10000 nM. Regarding `Cc1cn2c(-c3nn(C)c(C(=O)Nc4ccnc(C(F)(F)F)c4)c3C(F)(F)F)cccc2n1` [Compound I-229], the IC50 lay in the range of 2500 to 10000 nM. For the compound `COc1ncc(NC(=O)c2c(C(F)(F)F)c(-c3cccc4ncccc34)nn2C)cc1C#N` [Compound I-141], the IC50 was 2500 to 10000 nM. As for `Cn1nc(-c2nccc3ccsc23)c(C(F)(F)F)c1C(=O)Nc1ccnc(C(F)(F)F)c1` [Compound I-237], the IC50 was 500 to 2500 nM. `Cn1nc(-c2c[nH]c3cnccc23)c(C(F)(F)F)c1C(=O)Nc1ccnc(C(F)(F)F)c1` [Compound I-124] gave an IC50 of 500 to 2500 nM.

As for `Cn1nc(-c2cccc3ccoc23)c(C(F)(F)F)c1C(=O)Nc1cnc(-n2nccn2)c(C#N)c1` [Compound I-30], the IC50 is < 500 nM. As for `COc1c(-c2nn(C)c(C(=O)Nc3ccnc(C(F)(F)F)c3)c2C(F)(F)F)ccnc1N` [Compound I-199], the figure is 2500 to 10000 nM.

Take `Cn1nc(-c2ccnc3c(F)cccc23)c(C(F)(F)F)c1C(=O)Nc1ccnc(C(F)(F)F)c1` [Compound I-110]: the IC50 is 500 to 2500 nM. For `Cn1nc(-c2cccc3ncccc23)c(C(F)(F)F)c1C(=O)Nc1cnc(-n2nccn2)c(Cl)c1` [Compound I-58], the IC50 is < 500 nM. Turning to `Cn1nc2c(c1C(=O)Nc1ccnc(C(F)(F)F)c1)CCCc1ccccc1-2` [Compound I-252], the IC50 fell in the range of 2500 to 10000 nM. With `Cn1nc(-c2ccc(C#N)cc2Cl)c(C(F)(F)F)c1C(=O)Nc1cnc(-n2nccn2)c(C#N)c1` [Compound I-35], the IC50 is < 500 nM. The value for `COc1ccc2ncsc2c1-c1nn(C)c(C(=O)Nc2ccnc(C(F)(F)F)c2)c1C(F)(F)F` [Compound I-232] was < 500 nM; that for `Cc1ccc(-c2nn(C)c(C(=O)Nc3ccnc(C(F)(F)F)c3)c2C(F)(F)F)n2ccnc12` [Compound I-238] was 2500 to 10000 nM. As for `COCCn1nc(-c2ccccc2)c(C(F)(F)F)c1C(=O)Nc1cnc(-n2nccn2)c(Cl)c1` [Compound I-172], the figure is 500 to 2500 nM. `Cn1nc(-c2cccc3c2OCC3)c(C(F)(F)F)c1C(=O)Nc1cnc(-n2nccn2)c(Cl)c1` [Compound I-159]: the IC50 is < 500 nM. As for `Cn1nc(-c2n[nH]c3ncccc23)c(C(F)(F)F)c1C(=O)Nc1ccnc(C(F)(F)F)c1` [Compound I-242], the figure is 2500 to 10000 nM; as for `Cn1nc(-c2cccc3cnoc23)c(C(F)(F)F)c1C(=O)Nc1ccnc(C(F)(F)F)c1` [Compound I-236], 2500 to 10000 nM; as for `Cn1nc(Cc2ccccc2)c(C(F)(F)F)c1C(=O)Nc1cnc(-n2nccn2)c(Cl)c1` [Compound I-143], 500 to 2500 nM. `Cn1nc(-c2cccc3c(=O)[nH]cnc23)c(C(F)(F)F)c1C(=O)Nc1ccnc(C(F)(F)F)c1` [Compound I-187, 1-methyl-3-(4-oxo-3,4-dihydroquinazolin-8-yl)-4-(trifluoromethyl)-N-(2-(trifluoromethyl)pyridin-4-yl)-1H-pyrazole-5-carboxamide] had an IC50 of 2500 to 10000 nM. Consider `Cn1nc(-c2cccn(C)c2=O)c(C(F)(F)F)c1C(=O)Nc1ccnc(C(F)(F)F)c1` [Compound I-48], for which the IC50 is > 10000 nM. `Cn1nc(-c2cnc3ncccn23)c(C(F)(F)F)c1C(=O)Nc1ccnc(C(F)(F)F)c1` [Compound I-15]: the half-maximal inhibitory concentration (IC50) was > 10000 nM. Regarding `Cn1nc(-c2cc(N)ncc2Cl)c(C(F)(F)F)c1C(=O)Nc1ccnc(C(F)(F)F)c1` [Compound I-198], the IC50 is < 500 nM.

Turning to `COc1cc(-c2nn(C)c(C(=O)Nc3ccnc(C(F)(F)F)c3)c2C(F)(F)F)c2scnc2c1` [Compound I-104], the IC50 was > 10000 nM. The compound `Cn1nc(-c2ccc(F)c3nccn23)c(C(F)(F)F)c1C(=O)Nc1ccnc(C(F)(F)F)c1` [Compound I-291] came in with an IC50 of 500 to 2500 nM. In the case of `Cn1nc(-c2cccc3nnsc23)c(C(F)(F)F)c1C(=O)Nc1ccnc(C(F)(F)F)c1` [Compound I-109], the 50% inhibitory concentration (IC50) is > 10000 nM. `Cn1nc(-c2cccc3ncsc23)c(C(F)(F)F)c1C(=O)Nc1ccc(C(=O)N2CC(O)C2)c(Cl)c1` [Compound I-235] came in with an IC50 of 500 to 2500 nM.

The compound `Cn1nc(-c2csc3c(=O)[nH]ccc23)c(C(F)(F)F)c1C(=O)Nc1ccnc(C(F)(F)F)c1` [Compound I-113] returned an IC50 of 500 to 2500 nM.

In the case of `Cn1nc(-c2cccc3c2OCO3)c(C(F)(F)F)c1C(=O)Nc1cnc(-n2nccn2)c(Cl)c1` [Compound I-144], the IC50 is < 500 nM. The compound `Cn1nc(-c2cccc3cccnc23)c(C(F)(F)F)c1C(=O)Nc1ccnc(C(F)(F)F)c1` [Compound I-7] registered a concentration for half-maximal inhibition (IC50) of 500 to 2500 nM. The value for `Cc1cn2c(-c3nn(C)c(C(=O)Nc4ccnc(C5CC5)c4)c3C(F)(F)F)cccc2n1` [Compound I-283] was > 10000 nM; that for `Cn1nc(-c2cnc3cnccn23)c(C(F)(F)F)c1C(=O)Nc1ccnc(C(F)(F)F)c1` [Compound I-225] was > 10000 nM; that for `Cn1nc(-c2ccccc2)c(C(F)(F)F)c1C(=O)Nc1cc(C2CC2)ccn1` [Compound I-137] was > 10000 nM.

With `O=C(Nc1cnc(-n2nccn2)c(Cl)c1)c1nn2c(c1C(F)(F)F)-c1ccccc1CC2` [Compound I-188, N-(5-chloro-6-(2H-1,2,3-triazol-2-yl)pyridin-3-yl)-1-(trifluoromethyl)-5,6-dihydropyrazolo[5,1-a]isoquinoline-2-carboxamide], the IC50 was < 500 nM. As for `Cn1nc(-c2nsc3ccccc23)c(C(F)(F)F)c1C(=O)Nc1ccnc(C(F)(F)F)c1` [Compound I-244], the IC50 was in the range of 500 to 2500 nM. With `Cn1nc(-c2c(F)ccc3nc(N)sc23)c(C(F)(F)F)c1C(=O)Nc1ccnc(C(F)(F)F)c1` [Compound I-251], the IC50 fell in the range of 500 to 2500 nM. In the case of `Cn1nc(-c2cccc3ncccc23)c(C(F)(F)F)c1C(=O)Nc1ccnc(C(F)(F)F)c1` [Compound I-39], the IC50 was in the range of 500 to 2500 nM.
